US20110166112A1, “METHOD FOR STIMULATING PLATELET PRODUCTION” (Eisai, Inc., priority 2009, published 2011)

System: subjects with chronic ITP
Experiment: Combined 28-day and 6-month rollover studies of E5501: safety (TEAEs, serious TEAEs, thromboembolic events, neoplasms, liver toxicity, discontinuations)
Type: in vivo, human
Details: N=22
Source text: Primary Endpoint: The primary endpoint was to assess the safety and tolerability to E5501, including AEs and clinical laboratory parameters, over the 6 additional months of treatment.
In this way, safety data reflect each subject's complete duration of exposure to E5501 starting with lead-in the previous study and continuing into the current study.
Following Protocol Amendment 4, the current study contained a flexible dose regimen; therefore, this study was considered to have an open-label, uncontrolled, single-arm design. […] This was the method used to assess safety. • Grouping method B was based on both treatment received and day 28 platelet response to study drug in Study the previous study. This was the method used for the analysis of efficacy for the FAS and the SE population.
Overall Adverse Events. […] The primary focus is on summary statistics for the entire safety population and provides an overall safety profile for E5501. The summary statistics for each group, e.g., lower ⅓, middle ⅓ and upper ⅓ average daily dose levels, is secondary and provides further safety information across the 3 dose levels.

O=C(Nc1nc(-c2cc(Cl)cs2)c(N2CCN(C3CCCCC3)CC2)s1)c1cnc(N2CCC(C(=O)O)CC2)c(Cl)c1 [E5501, 1-(3-chloro-5-{[4-(4-chlorothiophen-2-yl)-5-(4-cyclohexylpiperazin-1-yl)thiazol-2-yl]carbamoyl}pyridine-2-yl)piperidine-4-carboxylic acid]
Serious TEAE, n of subjects (Lower ⅓ dose (2.5-<8.85 mg)): 1 | Serious treatment-related TEAEs, % of subjects (Lower ⅓ dose (2.5-<8.85 mg)): (4.5) % | Serious treatment-related TEAEs, n of subjects (Lower ⅓ dose (2.5-<8.85 mg)): 1 | Severe (grade 3-4) TEAEs, % of subjects (Lower ⅓ dose (2.5-<8.85 mg)): (18.2) % | Severe (grade 3-4) TEAEs, n of subjects (Lower ⅓ dose (2.5-<8.85 mg)): 4 | Somnolence, n of subjects (Lower ⅓ dose (2.5-<8.85 mg)): 0 | Suspected drug-related AEs, % of subjects (Lower ⅓ dose (2.5-<8.85 mg)): (59.1) % | Suspected drug-related AEs, n of subjects (Lower ⅓ dose (2.5-<8.85 mg)): 13 | Upper respiratory tract infection, % of subjects (Lower ⅓ dose (2.5-<8.85 mg)): (9.1) % | Upper respiratory tract infection, n of subjects (Lower ⅓ dose (2.5-<8.85 mg)): 2 | Vomiting, % of subjects (Lower ⅓ dose (2.5-<8.85 mg)): (4.5) % | Vomiting, n of subjects (Lower ⅓ dose (2.5-<8.85 mg)): 1 | Withdrawal due to TEAE, % of subjects (Lower ⅓ dose (2.5-<8.85 mg)): (13.6) % | Withdrawal due to TEAE, n of subjects (Lower ⅓ dose (2.5-<8.85 mg)): 3 | Abdominal pain upper, n of subjects (Middle ⅓ dose (≧8.85-<13.5 mg)): 0 | Any Serious TEAE, n (%) of subjects (Middle ⅓ dose (≧8.85-<13.5 mg)): 3 (13.6) n (%) | Any TEAE, % of subjects (Middle ⅓ dose (≧8.85-<13.5 mg)): (100.0) % | Any TEAE, n of subjects (Middle ⅓ dose (≧8.85-<13.5 mg)): 22 | Arthralgia, % of subjects (Middle ⅓ dose (≧8.85-<13.5 mg)): (18.2) % | Arthralgia, n of subjects (Middle ⅓ dose (≧8.85-<13.5 mg)): 4 | Asthenia, n of subjects (Middle ⅓ dose (≧8.85-<13.5 mg)): 0 | Back pain, % of subjects (Middle ⅓ dose (≧8.85-<13.5 mg)): (9.1) % | Back pain, n of subjects (Middle ⅓ dose (≧8.85-<13.5 mg)): 2 | Constipation, % of subjects (Middle ⅓ dose (≧8.85-<13.5 mg)): (13.6) % | Constipation, n of subjects (Middle ⅓ dose (≧8.85-<13.5 mg)): 3 | Contusion, % of subjects (Middle ⅓ dose (≧8.85-<13.5 mg)): (13.6) % | Contusion, n of subjects (Middle ⅓ dose (≧8.85-<13.5 mg)): 3 | Cough, n of subjects (Middle ⅓ dose (≧8.85-<13.5 mg)): 0 | Deaths, n of subjects (Middle ⅓ dose (≧8.85-<13.5 mg)): 0 | Diarrhoea, % of subjects (Middle ⅓ dose (≧8.85-<13.5 mg)): (4.5) % | Diarrhoea, n of subjects (Middle ⅓ dose (≧8.85-<13.5 mg)): 1 | Dizziness, % of subjects (Middle ⅓ dose (≧8.85-<13.5 mg)): (4.5) % | Dizziness, n of subjects (Middle ⅓ dose (≧8.85-<13.5 mg)): 1 | Dose interruption due to TEAE, % of subjects (Middle ⅓ dose (≧8.85-<13.5 mg)): (13.6) % | Dose interruption due to TEAE, n of subjects (Middle ⅓ dose (≧8.85-<13.5 mg)): 3 | Dyspnoea, % of subjects (Middle ⅓ dose (≧8.85-<13.5 mg)): (13.6) % | Dyspnoea, n of subjects (Middle ⅓ dose (≧8.85-<13.5 mg)): 3 | Ecchymosis, % of subjects (Middle ⅓ dose (≧8.85-<13.5 mg)): (9.1) % | Ecchymosis, n of subjects (Middle ⅓ dose (≧8.85-<13.5 mg)): 2 | Epistaxis, % of subjects (Middle ⅓ dose (≧8.85-<13.5 mg)): (13.6) % | Epistaxis, n of subjects (Middle ⅓ dose (≧8.85-<13.5 mg)): 3 | Fatigue, % of subjects (Middle ⅓ dose (≧8.85-<13.5 mg)): (31.8) % | Fatigue, n of subjects (Middle ⅓ dose (≧8.85-<13.5 mg)): 7 | Gingival bleeding, % of subjects (Middle ⅓ dose (≧8.85-<13.5 mg)): (9.1) % | Gingival bleeding, n of subjects (Middle ⅓ dose (≧8.85-<13.5 mg)): 2 | Headache, % of subjects (Middle ⅓ dose (≧8.85-<13.5 mg)): (40.9) % | Headache, n of subjects (Middle ⅓ dose (≧8.85-<13.5 mg)): 9 | Insomnia, % of subjects (Middle ⅓ dose (≧8.85-<13.5 mg)): (13.6) % | Insomnia, n of subjects (Middle ⅓ dose (≧8.85-<13.5 mg)): 3 | Migraine, % of subjects (Middle ⅓ dose (≧8.85-<13.5 mg)): (4.5) % | Migraine, n of subjects (Middle ⅓ dose (≧8.85-<13.5 mg)): 1 | Mouth haemorrhage, n of subjects (Middle ⅓ dose (≧8.85-<13.5 mg)): 0 | Nausea, % of subjects (Middle ⅓ dose (≧8.85-<13.5 mg)): (9.1) % | Nausea, n of subjects (Middle ⅓ dose (≧8.85-<13.5 mg)): 2 | Pain in extremity, % of subjects (Middle ⅓ dose (≧8.85-<13.5 mg)): (9.1) % | Pain in extremity, n of subjects (Middle ⅓ dose (≧8.85-<13.5 mg)): 2 | Petechiae, % of subjects (Middle ⅓ dose (≧8.85-<13.5 mg)): (4.5) % | Petechiae, n of subjects (Middle ⅓ dose (≧8.85-<13.5 mg)): 1 | Platelet count increased, % of subjects (Middle ⅓ dose (≧8.85-<13.5 mg)): (9.1) % | Platelet count increased, n of subjects (Middle ⅓ dose (≧8.85-<13.5 mg)): 2 | Serious TEAE Cerebrovascular accident, n (%) of subjects (Middle ⅓ dose (≧8.85-<13.5 mg)): 0 n (%) | Serious TEAE Chest pain, n (%) of subjects (Middle ⅓ dose (≧8.85-<13.5 mg)): 0 n (%) | Serious TEAE Diarrhoea, n (%) of subjects (Middle ⅓ dose (≧8.85-<13.5 mg)): 0 n (%) | Serious TEAE Haemorrhage intracranial, n (%) of subjects (Middle ⅓ dose (≧8.85-<13.5 mg)): 1 (4.5) n (%) | Serious TEAE Lethargy, n (%) of subjects (Middle ⅓ dose (≧8.85-<13.5 mg)): 1 (4.5) n (%) | Serious TEAE Mitral valve incompetence, n (%) of subjects (Middle ⅓ dose (≧8.85-<13.5 mg)): 0 n (%) | Serious TEAE Myocardial infarction, n (%) of subjects (Middle ⅓ dose (≧8.85-<13.5 mg)): 1 (4.5) n (%) | Serious TEAE Nausea, n (%) of subjects (Middle ⅓ dose (≧8.85-<13.5 mg)): 1 (4.5) n (%) | Serious TEAE Pelvic venous thrombosis, n (%) of subjects (Middle ⅓ dose (≧8.85-<13.5 mg)): 1 (4.5) n (%) | Serious TEAE Platelet count decreased, n (%) of subjects (Middle ⅓ dose (≧8.85-<13.5 mg)): 1 (4.5) n (%) | Serious TEAE Pneumonia, n (%) of subjects (Middle ⅓ dose (≧8.85-<13.5 mg)): 1 (4.5) n (%) | Serious TEAE Pyrexia, n (%) of subjects (Middle ⅓ dose (≧8.85-<13.5 mg)): 0 n (%) | Serious TEAE Thrombocytopenia, n (%) of subjects (Middle ⅓ dose (≧8.85-<13.5 mg)): 0 n (%) | Serious TEAE Transient ischaemic attack, n (%) of subjects (Middle ⅓ dose (≧8.85-<13.5 mg)): 1 (4.5) n (%) | Serious TEAE Vomiting, n (%) of subjects (Middle ⅓ dose (≧8.85-<13.5 mg)): 1 (4.5) n (%) | Serious TEAE, % of subjects (Middle ⅓ dose (≧8.85-<13.5 mg)): (13.6) % | Serious TEAE, SOC Blood and lymphatic system disorders, n (%) of subjects (Middle ⅓ dose (≧8.85-<13.5 mg)): 0 n (%) | Serious TEAE, SOC Cardiac disorders, n (%) of subjects (Middle ⅓ dose (≧8.85-<13.5 mg)): 1 (4.5) n (%) | Serious TEAE, SOC Gastrointestinal disorders, n (%) of subjects (Middle ⅓ dose (≧8.85-<13.5 mg)): 1 (4.5) n (%) | Serious TEAE, SOC General disorders and administration site conditions, n (%) of subjects (Middle ⅓ dose (≧8.85-<13.5 mg)): 0 n (%) | Serious TEAE, SOC Infections and infestations, n (%) of subjects (Middle ⅓ dose (≧8.85-<13.5 mg)): 1 (4.5) n (%) | Serious TEAE, SOC Investigations, n (%) of subjects (Middle ⅓ dose (≧8.85-<13.5 mg)): 1 (4.5) n (%) | Serious TEAE, SOC Nervous system disorders, n (%) of subjects (Middle ⅓ dose (≧8.85-<13.5 mg)): 2 (9.1) n (%) | Serious TEAE, SOC Vascular disorders, n (%) of subjects (Middle ⅓ dose (≧8.85-<13.5 mg)): 1 (4.5) n (%) | Serious TEAE, n of subjects (Middle ⅓ dose (≧8.85-<13.5 mg)): 3 | Serious treatment-related TEAEs, % of subjects (Middle ⅓ dose (≧8.85-<13.5 mg)): (4.5) % | Serious treatment-related TEAEs, n of subjects (Middle ⅓ dose (≧8.85-<13.5 mg)): 1 | Severe (grade 3-4) TEAEs, % of subjects (Middle ⅓ dose (≧8.85-<13.5 mg)): (22.7) % | Severe (grade 3-4) TEAEs, n of subjects (Middle ⅓ dose (≧8.85-<13.5 mg)): 5 | Somnolence, n of subjects (Middle ⅓ dose (≧8.85-<13.5 mg)): 0 | Suspected drug-related AEs, % of subjects (Middle ⅓ dose (≧8.85-<13.5 mg)): (68.2) % | Suspected drug-related AEs, n of subjects (Middle ⅓ dose (≧8.85-<13.5 mg)): 15 | Upper respiratory tract infection, % of subjects (Middle ⅓ dose (≧8.85-<13.5 mg)): (4.5) % | Upper respiratory tract infection, n of subjects (Middle ⅓ dose (≧8.85-<13.5 mg)): 1
